Source: patent US20070123546A1, “2-amino-7,8-dihydro-6H-pyrido[4,3-d]pyrimidin-5-ones” (Chiron Corporation, priority 2005, published 2007)

What follows are compounds tested against His-tagged N-terminal ATP binding domain (amino acid residues 9-236) of HSP90α (Homo sapiens, UniProt P07900) (assay: HSP90 inhibitor binding potency: TRF competition binding assay). Conditions: Table 4; competition with biotinylated radicicol.
Method in brief: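 His-tagged HSP90α N-domain (residues 9-236) incubated 2 h at room temperature with biotinylated radicicol and increasing compound in 50 mM HEPES, 6 mM MgCl2, 20 mM KCl, 0.1% BSA. Bound tracer captured on streptavidin plates, detected with europium anti-His antibody by time-resolved fluorescence; IC50 derived.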

`COc1cncc(-c2scnc2[C@@H]2Cc3nc(N)ncc3C(=O)N2)n1` [Compound 224, (S)-2-Amino-7-[5-(6-methoxy-pyrazin-2-yl)-thiazol-4-yl]-7,8-dihydro-6H-pyrido[4,3-d]pyrimidin-5-one] and `COc1cncc(-c2scnc2[C@@H]2Cc3nc(N)nc(C)c3C(=O)N2)n1` [Compound 233, (S)-2-Amino-7-[5-(6-methoxy-pyrazin-2-yl)-thiazol-4-yl]-4-methyl-7,8-dihydro-6H-pyrido[4,3-d]pyrimidin-5-one] cannot be ordered by IC50: < 10 µM for the first, < 10 µM for the second.

`COc1ncc(-c2cc(F)ccc2[C@H]2Cc3nc(N)nc(C)c3C(=O)N2)s1` [Compound 225, (R)-2-Amino-7-[4-fluoro-2-(2-methoxy-thiazol-5-yl)-phenyl]-4-methyl-7,8-dihydro-6H-pyrido[4,3-d]pyrimidin-5-one] and `CCOc1nc(-c2cc(F)ccc2[C@H]2Cc3nc(N)nc(C)c3C(=O)N2)cs1` [Compound 231, (R)-2-Amino-7-[2-(2-ethoxy-thiazol-4-yl)-4-fluoro-phenyl]-4-methyl-7,8-dihydro-6H-pyrido[4,3-d]pyrimidin-5-one] cannot be ordered by IC50: < 10 µM for the first, < 10 µM for the second.

`CCOc1nc(-c2cc(F)ccc2[C@H]2Cc3nc(N)nc(CC)c3C(=O)N2)cnc1N` [Compound 226, (R)-2-Amino-7-[2-(5-amino-6-ethoxy-pyrazin-2-yl)-4-fluoro-phenyl]-4-ethyl-7,8-dihydro-6H-pyrido[4,3-d]pyrimidin-5-one] and `CCOc1nc(-c2cc(OC)ccc2[C@H]2Cc3nc(N)nc(C)c3C(=O)N2)cnc1N` [Compound 238, (R)-2-Amino-7-[2-(5-amino-6-ethoxy-pyrazin-2-yl)-4-methoxy-phenyl]-4-methyl-7,8-dihydro-6H-pyrido[4,3-d]pyrimidin-5-one] cannot be ordered by IC50: < 10 µM for the first, < 10 µM for the second.

`COc1ccc([C@H]2Cc3nc(N)nc(C)c3C(=O)N2)c(-c2cncc(OC)n2)c1` [Compound 227, (R)-2-Amino-7-[4-methoxy-2-(6-methoxy-pyrazin-2-yl)-phenyl]-4-methyl-7,8-dihydro-6H-pyrido[4,3-d]pyrimidin-5-one] and `CCOc1cncc(-c2cc(OC)ccc2[C@H]2Cc3nc(N)nc(C)c3C(=O)N2)n1` [Compound 239, (R)-2-Amino-7-[2-(6-ethoxy-pyrazin-2-yl)-4-methoxy-phenyl]-4-methyl-7,8-dihydro-6H-pyrido[4,3-d]pyrimidin-5-one] cannot be ordered by IC50: < 10 µM for the first, < 10 µM for the second.

`COc1nc(-c2ccccc2[C@H]2Cc3nc(N)ncc3C(=O)N2)cnc1N` [Compound 229, (R)-2-Amino-7-[2-(5-amino-6-methoxy-pyrazin-2-yl)-phenyl]-7,8-dihydro-6H-pyrido[4,3-d]pyrimidin-5-one] and `CCOc1nc(-c2ccccc2[C@H]2Cc3nc(N)ncc3C(=O)N2)cnc1N` [Compound 234, (R)-2-Amino-7-[2-(5-amino-6-ethoxy-pyrazin-2-yl)-phenyl]-7,8-dihydro-6H-pyrido[4,3-d]pyrimidin-5-one] cannot be ordered by IC50: < 10 µM for the first, < 10 µM for the second.

`CCOc1nc(-c2ccccc2[C@H]2Cc3nc(N)nc(C)c3C(=O)N2)cs1` [Compound 230, (R)-2-Amino-7-[2-(2-ethoxy-thiazol-4-yl)-phenyl]-4-methyl-7,8-dihydro-6H-pyrido[4,3-d]pyrimidin-5-one] and `CCc1nc(-c2ccccc2[C@H]2Cc3nc(N)nc(C)c3C(=O)N2)cnc1N` [Compound 235, (R)-2-Ammo-7-[2-(5-amino-6-ethyl-pyrazin-2-yl)-phenyl]-4-methyl-7,8-dihydro-6H-pyrido[4,3-d]pyrimidin-5-one] cannot be ordered by IC50: < 10 µM for the first, < 10 µM for the second.

`COc1cccc(-c2scnc2[C@@H]2Cc3nc(N)nc(C)c3C(=O)N2)n1` [Compound 232, (S)-2-Amino-7-[5-(6-methoxy-pyridin-2-yl)-thiazol-4-yl]-4-methyl-7,8-dihydro-6H-pyrido[4,3-d]pyrimidin-5-one] and `COc1ccc([C@H]2Cc3nc(N)nc(C)c3C(=O)N2)c(-c2cccc(OC)n2)c1` [Compound 237, (R)-2-Amino-7-[4-methoxy-2-(6-methoxy-pyridin-2-yl)-phenyl]-4-methyl-7,8-dihydro-6H-pyrido[4,3-d]pyrimidin-5-one] cannot be ordered by IC50: < 10 µM for the first, < 10 µM for the second.

`COc1ccc([C@H]2Cc3nc(N)nc(C)c3C(=O)N2)c(Br)c1` [Compound 236, (R)-2-Amino-7-(2-bromo-4-methoxy-phenyl)-4-methyl-7,8-dihydro-6H-pyrido[4,3-d]pyrimidin-5-one] was tested, and the IC50 was ≥ 10 µM.
